Laboratory results: US9422308B2, “Derivatives of docosahexaenoylethanolamide and uses thereof” (The United States of America, as represented by the …, priority 2012, dated 2016)
Several values for one entry are separate records, joined by “and”; a condition that tells them apart may be missing. Equal entries are not always repeated.

How the values were obtained:
FAAH = target: T1, FAAH (Homo sapiens, UniProt O00519); test: time course FAAH enzyme assay; assay type: in vitro ADME; settings: Conc. 1 mM, 0.1 U of FAAH, 37° C., pH=9.0
T1 sequence (O00519 1-579): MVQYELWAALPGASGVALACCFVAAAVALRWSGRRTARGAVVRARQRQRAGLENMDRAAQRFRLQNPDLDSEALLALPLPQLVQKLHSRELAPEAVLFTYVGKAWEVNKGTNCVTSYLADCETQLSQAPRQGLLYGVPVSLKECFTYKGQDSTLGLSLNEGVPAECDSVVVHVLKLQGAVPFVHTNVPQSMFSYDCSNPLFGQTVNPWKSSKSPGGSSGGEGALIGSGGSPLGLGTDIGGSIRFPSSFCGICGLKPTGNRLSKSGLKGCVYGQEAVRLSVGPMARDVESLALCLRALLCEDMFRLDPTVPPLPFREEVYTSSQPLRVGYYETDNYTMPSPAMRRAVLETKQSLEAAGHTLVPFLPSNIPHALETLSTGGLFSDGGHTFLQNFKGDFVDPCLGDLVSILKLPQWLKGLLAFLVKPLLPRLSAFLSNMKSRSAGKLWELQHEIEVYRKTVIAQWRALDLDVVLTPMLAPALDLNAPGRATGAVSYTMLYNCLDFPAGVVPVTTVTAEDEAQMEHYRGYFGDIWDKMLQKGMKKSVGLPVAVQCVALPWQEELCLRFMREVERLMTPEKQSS
Procedure: Method development: The signal was optimized for each compound by ESI positive or negative ionization mode. A MS2 SIM scan was used to optimize the precursor ion and a product ion analysis was used to identify the best fragment for analysis and to optimize the collision energy.
Analysis: Samples were analyzed by LC/MS/MS using a API 3000 coupled with an Shimadzu HPLC and a CTC PAL chilled autosampler, all […] controlled by Analyst software (ABI). After separation on a C18 reverse phase HPLC column (Agilent, Waters, or equivalent). Mobile phase A was 0.1% AcOH in water. Mobile phase B was 0.1% AcOH in methanol. The flow rate was 0.6 mL/min. The gradient program included a 0.5 min hold at 30% B (the starting conditions), followed by a gradient to 100% B over 2.5 min and a 1 min hold at 100% B. The column was then returned to starting conditions and equilibrated over 1.25 min.
Assay Protocol: Assays were performed at 37° C. at pH=9.0 and involved the use of 0.1 U of FAAH. […] Reaction was terminated after an appropriate time by using protein precipitation treatment with acetonitrile (3:1, v/v).

cortical neurons = test: neurite growth of embryonic mouse neurons (total neurite length/neuron, MAP2 immunostaining); assay type: cell-based; settings: for effect with respect to cortical neurite growth as compared to DHA: FIGS. 1, 2; for dosage at which activity is exhibited as compared to DHA and synaptamide: dosages 10^-5 nM to 10 nM, FIG. 1
Procedure: To obtain embryonic mouse neurons for analysis, pregnant female mice were killed by cervical dislocation after exposure to CO2 inhalation. Embryonic neurons were prepared from E18 or P0 mouse hippocampi or cortex and cultured as described previously (Calderon and Kim, J. Neurochem., 90(4):979-88 (2004), errata in J Neurochem., September; 90(6):1540 (2004)), with slight modification. Briefly, hippocampi or cotices were dissected and dissociated by a method using either 0.25% trypsin (Gibco Invitrogen Corporation, Grand Island, N.Y.) in Hank's balanced salt solution (HBSS) or papain (20-30 U/mL) in dissociation media containing cysteine at 37° C. for 15 min. After the dissociation solution was aspirated off, cells were washed with same volume of HBSS, suspended in neurobasal medium (Gibco) containing 2% B27 supplement (Gibco), 1% glutamine/glutamax mix (1:4) (Gibco), 100 U/ml penicillin (Gibco) and 100 μg/ml streptomycin (Gibco), and seeded on poly-D-lysine chambered slides (Lab-Tek, Naperville, Ill.) at a density of 30,000 cells/cm^2. On the second day after seeding, the cells were treated with fatty acids, synaptamide or one of Compounds 1-50 for 48 h. Docosahexaenoic acid (DHA) and oleic acid (OA) were complexed with fatty acid-free bovine serum albumin (BSA; Sigma, St Louis, Mo.) in the presence of α-tocopherol (Sigma) under an argon atmosphere and darkness to prevent oxidation of the fatty acids. The mixture was mixed with fresh Neurobasal medium containing B27 supplement, glutamine/glutamax mix and antibiotics. Final concentrations of α-tocopherol and BSA in the culture medium were 40 μM and 0.01%, respectively. Alternatively, DHA, OA, synaptamide, or one of Compounds 1-50 were dissolved in DMSO and applied directly together with α-tocopherol. In such case, the final concentration of DMSO is less than 0.005%. All stock solutions were aliquoted under argon and stored at −70° C.
Cells were fixed with […] (Sigma) in PBS (pH 7.4) for 30 min. After permeabilization with 0.1% Triton X-100 (Sigma), cells were blocked for 1 h at 37° C. with PBS containing 10% goat serum (Gibco), and then incubated with the primary antibody against microtubule-associated protein (MAP2, mouse monoclonal 1:250; Sigma). After washing with PBS, cells were incubated with the corresponding Cy2-, Cy3-conjugated secondary antibody (Jackson Immunoresearch Laboratories Inc., West Grove, Pa.). For the nuclear staining, 0.06% 4,6-Diamidino-2-Phenylindole (Sigma) was used. After immunostaining, images were collected using an inverted motorized 1×81 Olympus (Melville, N.Y.) and the neurite length was analyzed with Metamorph software (Molecular Devices Corporation, Downingtown, Pa.). To minimize bias, neurons were evaluated blindly without the knowledge of sample identity. Four to six fields/well were chosen at random and only non-clustered neurons were evaluated to ensure the precision of the measurements. From each well, over 100 neurons were evaluated at 20× magnification for total neurite length/neuron. The data were obtained from triplicate wells and the experiments were repeated at least three times.
FIG. 2 provides graphical results of the data shown in Table 2, expressed as total neurite length per neuron. FIG. 3 provides graphical results of these experiments for compounds 11-50 (having designations as provided in Table 1, above), expressed as relative neurite length as compared to untreated controls. FIG. 4 provides graphical results of these experiments for compounds 1-10 (having designations as provided in Table 1, above), as applied to hippocampal neurons.
An additional assay was performed in which Compounds (A8), 4(A10), and 7(A9) were applied at varying dosages (from 10^−5 nM to 10 nM; 10^−5 nM, 10^−4 nM, 10^−2 nM, 0.1 nM, 1 nM, and 10 nM) as compared to DHA, synaptamide, and oleic acid. Neurite growth was measured at each dosage. Results of this assay are provided at FIG. 1.

[1] = cortical neurons, 10 nM (FIG. 2), 48 h

CCCCC/C=C\C/C=C\C/C=C\C/C=C\CCCC(=O)NCCO [AEA, anandamide]
% remaining (FAAH; 0 min): 74% | % remaining (FAAH; 30 min): 1% | % remaining (FAAH; 60 min): 1%

CC/C=C\C/C=C\C/C=C\C/C=C\C/C=C\C/C=C\CCC(=O)NCCCCO [Compound 2, (4Z,7Z,10Z,13Z,16Z,19Z)—N-(4-hydroxybutyl)docosa-4,7,10,13,16,19-hexaenamide]
Neurite Length/Neuron (mean) (cortical neurons; [1]): 6.9 μm

CC/C=C\C/C=C\C/C=C\C/C=C\C/C=C\C/C=C\CCC(=O)NCCCO [Compound 3, (4Z,7Z,10Z,13Z,16Z,19Z)—N-(3-hydroxypropyl)docosa-4,7,10,13,16,19-hexaenamide]
Neurite Length/Neuron (mean) (cortical neurons; [1]): 3.8 μm

CC/C=C\C/C=C\C/C=C\C/C=C\C/C=C\C/C=C\CCC(=O)NCCN1CCOCC1 [Compound 4, (4Z,7Z,10Z,13Z,16Z,19Z)—N-(2-morpholinoethyl)docosa-4,7,10,13,16,19-hexaenamide]
Neurite Length/Neuron (mean) (cortical neurons; [1]): 20.8 μm | effect with respect to cortical neurite growth as compared to DHA (cortical neurons; cortical neurons): superior effect | dosage at which activity is exhibited as compared to DHA and synaptamide (cortical neurons): activity at significantly lower dosages

CC/C=C\C/C=C\C/C=C\C/C=C\C/C=C\C/C=C\CCC(=O)NCCN(C)C [Compound 5, (4Z,7Z,10Z,13Z,16Z,19Z)—N-(2-(dimethylamino)ethyl)docosa-4,7,10,13,16,19-hexaenamide]
Neurite Length/Neuron (mean) (cortical neurons; [1]): 6.7 μm

CC/C=C\C/C=C\C/C=C\C/C=C\C/C=C\C/C=C\CCC(=O)NCCOC [Compound 6, (4Z,7Z,10Z,13Z,16Z,19Z)—N-(2-methoxyethyl)docosa-4,7,10,13,16,19-hexaenamide]
Neurite Length/Neuron (mean) (cortical neurons; [1]): 9.1 μm

CC/C=C\C/C=C\C/C=C\C/C=C\C/C=C\C/C=C\CCC(=O)NCCc1ccccc1 [Compound 7, (4Z,7Z,10Z,13Z,16Z,19Z)—N-phenethyldocosa-4,7,10,13,16,19-hexaenamide]
Neurite Length/Neuron (mean) (cortical neurons; [1]): 41.8 μm | effect with respect to cortical neurite growth as compared to DHA (cortical neurons; cortical neurons): superior effect | dosage at which activity is exhibited as compared to DHA and synaptamide (cortical neurons): activity at significantly lower dosages

CC/C=C\C/C=C\C/C=C\C/C=C\C/C=C\C/C=C\CCC(=O)NC(C)(C)CO [Compound 8, (4Z,7Z,10Z,13Z,16Z,19Z)—N-(1-hydroxy-2-methylpropan-2-yl)docosa-4,7,10,13,16,19-hexaenamide]
Neurite Length/Neuron (mean) (cortical neurons; [1]): 4.5 μm

CC/C=C\C/C=C\C/C=C\C/C=C\C/C=C\C/C=C\CCC(=O)N[C@@H](C)CO [Compound 9, (4Z,7Z,10Z,13Z,16Z,19Z)—N—((S)-1-hydroxypropan-2-yl)docosa-4,7,10,13,16,19-hexaenamide]
Neurite Length/Neuron (mean) (cortical neurons; [1]): 9.6 μm

CC/C=C\C/C=C\C/C=C\C/C=C\C/C=C\C/C=C\CCC(=O)N[C@H](C)CO [Compound 10, (4Z,7Z,10Z,13Z,16Z,19Z)—N—((R)-1-hydroxypropan-2-yl)docosa-4,7,10,13,16,19-hexaenamide]
Neurite Length/Neuron (mean) (cortical neurons; [1]): 9.5 μm

CC/C=C\C/C=C\C/C=C\C/C=C\C/C=C\C/C=C\CCC(=O)O [DHA, Docosahexaenoic acid, reference compound]
Neurite Length/Neuron (mean) (cortical neurons; cortical neurons, DHA 100 nM (FIG. 2), 48 h): 14.5 μm

CC/C=C\C/C=C\C/C=C\C/C=C\C/C=C\C/C=C\CCC(=O)NCCO [Synaptamide, Docosahexaenoylethanolamide]
Neurite Length/Neuron (mean) (cortical neurons; [1]): 29.3 μm | Neurite Length/Neuron, individual values (cortical neurons; cortical neurons, 10 nM (FIG. 2), 48 h, three individual values): 33.1 μm and 29.2 μm and 25.5 μm | % remaining (FAAH; 0 min): 100% | % remaining (FAAH; 30 min): 5% | % remaining (FAAH; 60 min): 1%
